In ChEMBL document CHEMBL1201862, “PubChem BioAssay data set” (2004):
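In this assay, cells in 96-well plates receive the compound at five concentrations for 48 hours. Endpoints are linearly interpolated between the surrounding concentrations. GI50 marks 50% less growth.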 Activity calls are given as the source filed them. No stated cut-off is given here; in the data, active = GI50 up to about 1.1 µM and inactive = higher.

Experiments:
Experiment in all cases: NCI tumour cell line growth inhibition, 48 h
SK-MEL-2 = test system: SK-MEL-2
KM12 = test system: KM12
NCI-H226 = test system: NCI-H226
CAKI-1 = test system: CAKI-1
U-251 = test system: U-251
MDA-MB-435 = test system: MDA-MB-435
COLO 205 = test system: COLO 205
SF-295 = test system: SF-295
SK-MEL-28 = test system: SK-MEL-28
Malme-3M = test system: Malme-3M
HCT-116 = test system: HCT-116
SNB-19 = test system: SNB-19
HOP-62 = test system: HOP-62
SF-539 = test system: SF-539
MCF7 = test system: MCF7
M14 = test system: M14
NCI/ADR-RES = test system: NCI/ADR-RES
IGROV-1 = test system: IGROV-1
DU-145 = test system: DU-145
Hs-578T = test system: Hs-578T
ACHN = test system: ACHN
HOP-92 = test system: HOP-92
OVCAR-8 = test system: OVCAR-8
T47D = test system: T47D
786-0 = test system: 786-0
MOLT-4 = test system: MOLT-4
TK-10 = test system: TK-10
HT-29 = test system: HT-29
PC-3 = test system: PC-3
SK-OV-3 = test system: SK-OV-3
LOX IMVI = test system: LOX IMVI
SF-268 = test system: SF-268
HCC 2998 = test system: HCC 2998
UACC-257 = test system: UACC-257
K562 = test system: K562
A498 = test system: A498
MDA-MB-231 = test system: MDA-MB-231
CCRF-CEM = test system: CCRF-CEM
RPMI-8226 = test system: RPMI-8226
OVCAR-3 = test system: OVCAR-3
OVCAR-4 = test system: OVCAR-4
RXF 393 = test system: RXF 393
EKVX = test system: EKVX
UO-31 = test system: UO-31
BT-549 = test system: BT-549
SK-MEL-5 = test system: SK-MEL-5
NCI-H23 = test system: NCI-H23
UACC-62 = test system: UACC-62
HCT-15 = test system: HCT-15
HL-60 = test system: HL-60
SW-620 = test system: SW-620
SN12C = test system: SN12C
NCI-H460 = test system: NCI-H460
OVCAR-5 = test system: OVCAR-5
SNB-75 = test system: SNB-75
A549 = test system: A549
NCI-H522 = test system: NCI-H522
MDA-N = test system: MDA-N
SR = test system: SR

What does the source list for `N=c1oc2cc(O)ccc2cc1C(=O)Nc1ccccn1`?
GI50 (SK-MEL-2): 28.8 µM (inactive); GI50 (KM12): 55 µM (inactive); GI50 (NCI-H226): 90.6 µM (inactive); GI50 (CAKI-1): 51.9 µM (inactive); GI50 (U-251): 44.5 µM (inactive); GI50 (MDA-MB-435): 44.5 µM (inactive); GI50 (COLO 205): 14 µM (inactive); GI50 (SF-295): > 100 µM (inactive); GI50 (SK-MEL-28): 76.7 µM (inactive); GI50 (Malme-3M): 47.2 µM (inactive); GI50 (HCT-116): 56.1 µM (inactive); GI50 (SNB-19): 92.9 µM (inactive); GI50 (HOP-62): > 100 µM (inactive); GI50 (SF-539): 92.9 µM (inactive); GI50 (MCF7): 14.9 µM (inactive); GI50 (M14): 59.7 µM (inactive); GI50 (NCI/ADR-RES): 48.8 µM (inactive); GI50 (IGROV-1): 44.9 µM (inactive); GI50 (DU-145): 25.4 µM (inactive); GI50 (Hs-578T): > 100 µM (inactive); GI50 (ACHN): 23.4 µM (inactive); GI50 (HOP-92): > 100 µM (inactive); GI50 (OVCAR-8): 32.2 µM (inactive); GI50 (T47D): 32.7 µM (inactive); GI50 (786-0): 16.4 µM (inactive); GI50 (MOLT-4): 1.78 µM (inactive); GI50 (TK-10): 41.9 µM (inactive); GI50 (HT-29): 29.7 µM (inactive); GI50 (PC-3): 40.1 µM (inactive); GI50 (SK-OV-3): 37.2 µM (inactive); GI50 (LOX IMVI): 34.4 µM (inactive); GI50 (SF-268): 65.2 µM (inactive); GI50 (HCC 2998): 34.3 µM (inactive); GI50 (UACC-257): > 100 µM (inactive); GI50 (K562): 26.5 µM (inactive); GI50 (A498): 24.7 µM (inactive); GI50 (MDA-MB-231): 54.3 µM (inactive); GI50 (CCRF-CEM): 27.8 µM (inactive); GI50 (RPMI-8226): 33.7 µM (inactive); GI50 (OVCAR-3): 72.4 µM (inactive); GI50 (OVCAR-4): 33 µM (inactive); GI50 (RXF 393): 26.6 µM (inactive); GI50 (EKVX): 40.2 µM (inactive); GI50 (UO-31): 292 nM (active); GI50 (BT-549): 73.6 µM (inactive); GI50 (SK-MEL-5): 42.3 µM (inactive); GI50 (NCI-H23): 80.9 µM (inactive); GI50 (UACC-62): 32.4 µM (inactive); GI50 (HCT-15): 51.5 µM; GI50 (HL-60): 30.5 µM (inactive); GI50 (SW-620): 77.1 µM (inactive); GI50 (SN12C): 62.2 µM (inactive); GI50 (NCI-H460): 62.8 µM (inactive); GI50 (OVCAR-5): > 100 µM (inactive); GI50 (SNB-75): 36.5 µM (inactive); GI50 (A549): > 100 µM (inactive); GI50 (NCI-H522): 3.43 µM (inactive)

For `CCN1C/C(=C\c2ccc(Cl)cc2)c2[nH]c(=O)c(C#N)c(-c3ccc(Cl)cc3)c2C1`, which GI50 (SK-MEL-2) is on record?
Its GI50 is > 100 µM (inactive).

And the GI50 (KM12)?
The GI50 was > 100 µM (inactive).

And the GI50 (NCI-H226)?
Its GI50 is > 100 µM (inactive).

And the GI50 (U-251)?
The GI50 was > 100 µM (inactive).

What about the GI50 (MDA-MB-435) of the same compound?
Its GI50 is > 100 µM (inactive).

And the GI50 (COLO 205)?
Its GI50 is > 100 µM (inactive).

And the GI50 (SK-MEL-28)?
Its GI50 is > 100 µM (inactive).

What about the GI50 (Malme-3M) of the same compound?
The GI50 was > 100 µM (inactive).

And the GI50 (HCT-116)?
Its GI50 is > 100 µM (inactive).

What about the GI50 (SNB-19) of the same compound?
The GI50 was > 100 µM (inactive).

And the GI50 (HOP-62)?
The GI50 was > 100 µM (inactive).

And the GI50 (SF-539)?
Its GI50 is > 100 µM (inactive).

And the GI50 (MCF7)?
The GI50 was > 100 µM (inactive).

And the GI50 (M14)?
Its GI50 is > 100 µM (inactive).

And the GI50 (NCI/ADR-RES)?
Its GI50 is > 100 µM (inactive).

What about the GI50 (IGROV-1) of the same compound?
Its GI50 is > 100 µM (inactive).

And the GI50 (DU-145)?
Its GI50 is > 100 µM (inactive).

And the GI50 (ACHN)?
Its GI50 is > 100 µM (inactive).

And the GI50 (HOP-92)?
Its GI50 is > 100 µM (inactive).

And the GI50 (T47D)?
The GI50 was > 100 µM (inactive).

And the GI50 (786-0)?
Its GI50 is > 100 µM (inactive).

And the GI50 (MOLT-4)?
The GI50 was 21.2 µM (inactive).

What about the GI50 (TK-10) of the same compound?
Its GI50 is > 100 µM (inactive).

And the GI50 (HT-29)?
The GI50 was > 100 µM (inactive).

And the GI50 (PC-3)?
Its GI50 is > 100 µM (inactive).

What about the GI50 (SK-OV-3) of the same compound?
Its GI50 is > 100 µM (inactive).

What about the GI50 (LOX IMVI) of the same compound?
The GI50 was > 100 µM (inactive).

What about the GI50 (SF-268) of the same compound?
The GI50 was > 100 µM (inactive).

What about the GI50 (HCC 2998) of the same compound?
The GI50 was > 100 µM (inactive).

What about the GI50 (UACC-257) of the same compound?
The GI50 was > 100 µM (inactive).

What about the GI50 (K562) of the same compound?
Its GI50 is > 100 µM (inactive).

And the GI50 (A498)?
The GI50 was > 100 µM (inactive).

And the GI50 (MDA-MB-231)?
The GI50 was > 100 µM (inactive).

What about the GI50 (MDA-N) of the same compound?
Its GI50 is > 100 µM (inactive).

And the GI50 (CCRF-CEM)?
Its GI50 is 71.6 µM (inactive).

What about the GI50 (RPMI-8226) of the same compound?
The GI50 was > 100 µM (inactive).

And the GI50 (OVCAR-3)?
The GI50 was > 100 µM (inactive).

And the GI50 (OVCAR-4)?
Its GI50 is > 100 µM (inactive).

And the GI50 (RXF 393)?
Its GI50 is > 100 µM (inactive).

What about the GI50 (SR) of the same compound?
Its GI50 is 18.4 µM (inactive).

And the GI50 (EKVX)?
The GI50 was > 100 µM (inactive).

What about the GI50 (BT-549) of the same compound?
The GI50 was > 100 µM (inactive).

And the GI50 (SK-MEL-5)?
The GI50 was > 100 µM (inactive).

What about the GI50 (NCI-H23) of the same compound?
Its GI50 is > 100 µM (inactive).

What about the GI50 (UACC-62) of the same compound?
The GI50 was > 100 µM (inactive).

And the GI50 (HCT-15)?
The GI50 was over 100 µM.

What about the GI50 (HL-60) of the same compound?
Its GI50 is > 100 µM (inactive).

And the GI50 (SW-620)?
The GI50 was > 100 µM (inactive).

What about the GI50 (SN12C) of the same compound?
The GI50 was > 100 µM (inactive).

What about the GI50 (NCI-H460) of the same compound?
The GI50 was > 100 µM (inactive).

And the GI50 (OVCAR-5)?
The GI50 was > 100 µM (inactive).

What about the GI50 (A549) of the same compound?
Its GI50 is > 100 µM (inactive).
